{
  "source": "PubChem BioAssay AID812",
  "about": "(SRMLSC, 2007)",
  "note": "Activity calls are given as the source filed them. How the calls were made is not given here.",
  "data": [
    {"tested_on": "Saccharomyces cerevisiae lifespan extension, no nicotinamide", "assay": "yeast lifespan extension without nicotinamide, confirmation, yeast lifespan extension project, S. cerevisiae (AID 812);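 further: growth read as optical density after 42 hours of incubation at 30C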", "values": [
      {"molecule": "C=C(C(=O)c1ccccc1)C(C)CC(=O)c1ccccc1", "note": "(centres undefined)", "EC50": "> 40 µM (inactive)"},
      {"molecule": "O=C1OC2(CCCCC2)OC(=O)C1=CNc1nc2ccccc2s1", "EC50": "> 40 µM (inactive)"},
      {"molecule": "CC(C)c1ccc(C2=C(O)c3ccccc3C(=O)C2=O)cc1", "EC50": "> 40 µM (inactive)"},
      {"molecule": "C=CCN(CC=C)c1nc2ccccc2nc1C(C#N)C(=O)OC(C)C", "note": "(centres undefined)", "EC50": "> 40 µM (inactive)"},
      {"molecule": "CCCCC(CC)Cn1c2nc3ccccc3nc2c2c(=N)oc(C)nc21", "note": "(centres undefined)", "EC50": "> 40 µM (inactive)"},
      {"molecule": "O=C(Nc1scc(-c2ccc(F)cc2)c1C(=O)O)c1ccco1", "EC50": "> 40 µM (inactive)"},
      {"molecule": "Cc1oc2c(c(=O)c1C)C(=O)CC(c1ccccc1)C2", "note": "(centres undefined)", "EC50": "> 40 µM (inactive)"},
      {"molecule": "CCc1c(C)c(C#N)c2nc3ccccc3n2c1Cl", "EC50": "> 40 µM (inactive)"},
      {"molecule": "CN1C(=O)/C(=C/c2cccn2-c2ccc3ccccc3c2)C(=O)NC1=S", "EC50": "> 40 µM (inactive)"},
      {"molecule": "CC1CCCN(c2nc3ccccc3nc2C(C#N)C(=O)OC2CCCCC2)C1", "note": "(centres undefined)", "EC50": "> 40 µM (inactive)"},
      {"molecule": "O=C1CC(c2ccccc2)CC(O)=C1C=NCCN1CCN(C(=O)Nc2ccccc2)CC1", "note": "(centres undefined)", "EC50": "> 40 µM (inactive)"},
      {"molecule": "Oc1ccc(NCc2ccccc2OCc2ccccc2F)cc1", "EC50": "> 40 µM (inactive)"},
      {"molecule": "O=S(=O)(ON(c1ccccc1)S(=O)(=O)c1ccccc1)c1ccccc1", "EC50": "> 40 µM (inactive)"},
      {"molecule": "COc1cnc(-c2ccccn2)nc1Sc1cccc(Cl)c1", "EC50": "> 40 µM (inactive)"},
      {"molecule": "O=C1Nc2cc(Cl)c(Cl)cc2N(O)N1c1cc(Cl)cc(Cl)c1", "EC50": "> 40 µM (inactive)"},
      {"molecule": "O=C(/C(=C/c1ccccc1)n1cncn1)c1ccc(Cl)cc1Cl", "EC50": "> 40 µM (inactive)"},
      {"molecule": "COC(=O)C1=C(N)OC2=C(C(=O)CC(C)(C)C2)C1c1cccs1", "note": "(centres undefined)", "EC50": "> 40 µM (inactive)"},
      {"molecule": "O=C1NC(=O)N(CCC2=CCCCC2)C(=O)/C1=C\\c1cccs1", "EC50": "> 40 µM (inactive)"},
      {"molecule": "COC(=O)CCS(=O)(=O)c1nc(-c2ccccc2)cc(C(F)(F)F)n1", "EC50": "> 40 µM (inactive)"},
      {"molecule": "Cc1ccc(S(=O)(=O)C(C#N)c2nc3ccccc3nc2N2CCCC2)cc1", "note": "(centres undefined)", "EC50": "> 40 µM (inactive)"},
      {"molecule": "Nc1sc(-c2ccccc2)cc1C(=O)O", "EC50": "> 40 µM (inactive)"},
      {"molecule": "O=c1[nH]c2ccccc2nc1C(Cl)c1ccccc1", "note": "(centres undefined)", "EC50": "> 40 µM (inactive)"},
      {"molecule": "COC(=O)C1=C(C(=O)OC)C(c2cc(Br)ccc2O)c2sc(=O)[nH]c2S1", "note": "(centres undefined)", "EC50": "> 40 µM (inactive)"},
      {"molecule": "CC1(C)CC2c3cccc(C(=O)O)c3C(=O)N2c2c1ccc1ccccc21", "note": "(centres undefined)", "EC50": "> 40 µM (inactive)"},
      {"molecule": "CCc1ccc(C(=O)CN2C(=O)NC(C)(CCc3ccccc3)C2=O)cc1", "note": "(centres undefined)", "EC50": "> 40 µM (inactive)"},
      {"molecule": "CSc1ccc(S(=O)(=O)NCc2ccc(Cl)cc2Cl)cc1", "EC50": "> 40 µM (inactive)"},
      {"molecule": "CCOC(=O)C1C(=O)C(C(C)=O)C(=O)CC1CC(C)SCC", "note": "(centres undefined)", "EC50": "> 40 µM (inactive)"},
      {"molecule": "CN1C(=O)C(Cl)(Cl)C(=O)c2ccccc21", "EC50": "> 40 µM (inactive)"},
      {"molecule": "CCCCC(=O)Nc1ccc(C(=O)NNC(=S)NC(=O)c2cccs2)cc1", "EC50": "> 40 µM (inactive)"},
      {"molecule": "Cc1ccc(NC(=O)CN2CCN(CCN=CC3=C(O)CC(c4ccccc4)CC3=O)CC2)cc1", "note": "(centres undefined)", "EC50": "> 40 µM (inactive)"},
      {"molecule": "COc1cc(C(C[N+](=O)[O-])c2c(-c3ccccc3)cc3ccccn23)cc(OC)c1OC", "note": "(centres undefined)", "EC50": "> 40 µM (inactive)"},
      {"molecule": "CC(=O)Oc1ccccc1N1C(=O)c2ccc(C(=O)O)cc2C1=O", "EC50": "> 40 µM (inactive)"},
      {"molecule": "Cc1ccnc(SCc2cc(=O)c(OC(=O)c3ccco3)co2)n1", "EC50": "> 40 µM (inactive)"},
      {"molecule": "CC1(C)CC(=O)C(C(=O)Cc2ccccc2[N+](=O)[O-])C(=O)C1", "EC50": "> 40 µM (inactive)"},
      {"molecule": "CC(C)C(c1nnnn1Cc1ccccc1)N1CCN(Cc2ccc3c(c2)OCO3)CC1", "note": "(centres undefined)", "EC50": "> 40 µM (inactive)"},
      {"molecule": "CCC1CCCCN1S(=O)(=O)c1ccc(S(=O)(=O)N(Cc2cccs2)C2CC2)cc1", "note": "(centres undefined)", "EC50": "> 40 µM (inactive)"},
      {"molecule": "CC(=O)Nc1c(O)nc(SCc2ccccc2C#N)[nH]c1=O", "EC50": "> 40 µM (inactive)"},
      {"molecule": "C/C(=N\\NC(=O)c1ccccc1O)c1c(O)cc(C)oc1=O", "EC50": "> 40 µM (inactive)"},
      {"molecule": "C/C(=N\\NC(=O)c1cccc(Cl)c1)C1C(=O)c2ccccc2C1=O", "EC50": "> 40 µM (inactive)"}
    ]}
  ]
}
